The IC50 is the concentration that inhibits the measured activity by half. Low readings indicate inhibition by little substance, high ones a need for much substance.

In this assay the target is T1, NS3/4A protease complex (UniProt P27958).
T1 construct: fused on or other part: three-lysine solubilising tail at the C-terminus of NS4A; probably a His tag from pET21b (Ni-NTA purification)
As to the kind of experiment: HCV NS3/4A protease complex enzyme assay (strain not stated). The assay is classed as biochemical. The note with it: Table 2; strain and unit inferred. An excerpt: The purpose of this in vitro assay was to measure the inhibition of HCV NS3 protease complexes, derived from the BMS strain, H77 strain or J4L6S strain, as described above, by compounds of the present disclosure. This assay provides an indication of how effective compounds of the present disclosure would be in inhibiting HCV NS3 proteolytic activity.
In order to monitor HCV NS3/4A protease activity, an NS3/4A peptide substrate was used. The substrate was RET S1 (Resonance Energy Transfer Depsipeptide Substrate; AnaSpec, Inc. cat #22991)(FRET peptide), described by Taliani et al. in Anal. Biochem. 240(2):60-67 (1996). The sequence of this peptide is loosely based on the NS4A/NS4B natural cleavage site for the HCV NS3 protease except there is an ester linkage rather than an amide bond at the cleavage site. The peptide also contains a fluorescence donor, EDANS, near one end of the peptide and an acceptor, DABCYL, near the other end. The fluorescence of the peptide is quenched by […] resonance energy transfer (RET) between the donor and the acceptor, but as the NS3 protease cleaves the peptide the products are released from RET quenching and the fluorescence of the donor becomes apparent.
The peptide substrate was incubated with one of the three recombinant NS3/4A protease complexes, in the absence or presence of a compound of the present disclosure. The inhibitory effects of a compound were determined by monitoring the formation of fluorescent reaction product in real time using a Cytofluor Series 4000.
Assay buffer: 50 mM HEPES, pH 7.5; 0.15 M NaCl; 0.1% Triton; 15% Glycerol; 10 mM βME. Substrate: 2 μM final concentration (from a 2 mM stock solution in DMSO stored at −20° C.). HCV NS3/4A protease type 1a (1b), 2-3 nM final concentration (from a 5 μM stock solution in 25 mM HEPES, pH 7.5, 20% glycerol, 300 mM NaCl, 0.2% Triton-X100, 10 mM βME). For compounds with potencies approaching the assay limit, the assay was made more sensitive by adding 50 μg/ml Bovine Serum Albumin (Sigma) to the assay buffer and reducing the end protease concentration to 300 pM.
The assay was performed in a 96-well polystyrene black plate from Falcon. Each well contained 25 μl NS3/4A protease complex in assay buffer, 50 μl of a compound of the present disclosure in 10% DMSO/assay buffer and 25 μl substrate in assay buffer. A control (no compound) was also prepared on the same assay plate. The enzyme complex was mixed with compound or control solution for 1 min before initiating the enzymatic reaction by the addition of substrate. The assay plate was read immediately using the Cytofluor Series 4000 (Perspective Biosystems). The instrument was set to read an emission of […] at 25° C. Reactions were generally followed for approximately 15 min.
The percent inhibition was calculated with the following equation: […]
where δF is the change in fluorescence over the linear range of the curve. A non-linear curve fit was applied to the inhibition-concentration data, and the 50% effective concentration (IC50) was calculated by the use of Excel XLfit software using the equation, y=A+((B−A)/(1+((C/x)̂D))).

T1 sequence (P27958 1027-1657, one chain of several): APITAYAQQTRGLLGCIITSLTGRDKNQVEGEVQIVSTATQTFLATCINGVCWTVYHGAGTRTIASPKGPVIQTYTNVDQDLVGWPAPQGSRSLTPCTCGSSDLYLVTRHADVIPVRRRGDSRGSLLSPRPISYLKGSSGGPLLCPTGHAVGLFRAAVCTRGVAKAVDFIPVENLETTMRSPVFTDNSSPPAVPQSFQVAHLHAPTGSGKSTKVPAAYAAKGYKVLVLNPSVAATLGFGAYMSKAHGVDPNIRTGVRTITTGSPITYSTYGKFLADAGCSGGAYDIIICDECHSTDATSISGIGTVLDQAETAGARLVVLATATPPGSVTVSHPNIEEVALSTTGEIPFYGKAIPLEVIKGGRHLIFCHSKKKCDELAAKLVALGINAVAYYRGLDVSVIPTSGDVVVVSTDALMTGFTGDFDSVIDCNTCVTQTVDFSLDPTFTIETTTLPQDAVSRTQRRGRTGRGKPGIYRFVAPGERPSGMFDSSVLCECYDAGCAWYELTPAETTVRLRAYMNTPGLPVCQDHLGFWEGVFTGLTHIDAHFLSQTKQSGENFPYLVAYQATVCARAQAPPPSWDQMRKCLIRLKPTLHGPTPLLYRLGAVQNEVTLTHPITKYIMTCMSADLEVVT

`COc1ccc2c(O[C@@H]3C[C@H]4C(=O)N[C@]5(C(=O)NS(=O)(=O)C6CC6)C[C@H]5/C=C\CCCCC[C@H](Nc5ccc(OC)nc5)C(=O)N4C3)nccc2c1` (single isomer, unassigned) [Compound 1] displayed an IC50 of 7 nM. This counts as single-digit nanomolar.
